The record followed here is PubChem BioAssay AID1996.

In brackets after ≈: the same amount, converted by molar mass.

The conditions of this data set: buffer; pH 7.4; 200.0 µM.
As for `O=C(NCc1ccc(F)cc1F)Nc1cnccc1C(F)(F)F`, the solubility (kinetic) (usually the concentration staying in solution when a stock, usually in DMSO, is diluted into the medium) was greater than 49.7 µg/mL.
As to `CCOC(=O)c1nc(NCc2ccccc2)sc1C`, the solubility (kinetic) turned out to be 9.5 µg/mL (≈ 34.4 µM).
With `O=C(COC(=O)C1CCCCC1)Nc1cccc(F)c1` the figure was greater than 41.9 µg/mL.
As to `Cc1ccc(Nc2nc(=O)c3cccnc3s2)c(Br)c1`, the kinetic solubility was 2.4 µg/mL (≈ 6.89 µM).
For `O=C(CN1CCCCC1)NC(=O)Nc1ccccc1F`, the kinetic solubility is greater than 41.9 µg/mL.
`C#CCOc1nc2c(c(=O)n(C)c(=O)n2C)n1Cc1ccccc1` yielded a kinetic solubility of 8.9 µg/mL (≈ 27.4 µM).
As to `O=C(CSc1nncc2ccccc12)Nc1cccc(C(=O)O)c1`, the kinetic solubility is greater than 50.9 µg/mL.
On to `CN1CCC(O)(c2cccs2)C(C(=O)c2cccs2)C1` (stereo not drawn), for which the kinetic solubility is 42.1 µg/mL (≈ 137 µM).
For `COc1ccccc1/C=C(\NC(=O)c1ccccc1)C(=O)NCc1ccco1`, the solubility (kinetic) worked out at 7 µg/mL (≈ 18.6 µM).
`Cc1cc(C)c(C(=O)C(C)OC(=O)c2ccccn2)cc1C` (stereo not drawn): the kinetic solubility stood at 17.7 µg/mL (≈ 59.5 µM).
`Cc1cc(OC(F)F)ccc1NC(=S)NC1CCCC1`: the kinetic solubility was greater than 45.1 µg/mL.
With `COc1ccc(OC)c(C(=O)Cn2cnc3ccccc3c2=O)c1`, the solubility (kinetic) was 0.9 µg/mL (≈ 2.77 µM).
Compound `C=CCNC(=S)N1CCC(C(=O)c2ccc(F)cc2)CC1` had a solubility (kinetic) greater than 46 µg/mL.
As to `N/C(=N\OC(=O)Cc1cccs1)c1ccc(Cl)cc1`, the solubility (kinetic) is 5.8 µg/mL (≈ 19.7 µM).
In turn, `Cc1ccc(NC(=S)NCCc2ccc(Cl)cc2)c(C)c1` returned a solubility (kinetic) of less than 0.3 µg/mL.
`O=C1CC2(CCN(C(=O)COc3ccc(F)cc3)CC2)Oc2ccccc21` returned a kinetic solubility greater than 55.4 µg/mL.
`CC1CC2(C)CC(C)C1(COC(=O)Nc1ccccc1)CO2` (stereo not drawn) registered a kinetic solubility of 44.6 µg/mL (≈ 147 µM).
In turn, `Cc1ccc(SC(C)C(=O)NC(N)=O)c(C)c1` (stereo not drawn) registered a solubility (kinetic) of 7.7 µg/mL (≈ 30.5 µM).
Turning to `COCC(=O)NC1CC(C)(C)Cc2c1cnn2-c1ccc(F)cc1` (stereo not drawn), the kinetic solubility is greater than 49.7 µg/mL.
Compound `CCc1c(C(=O)OCc2ccccc2)[nH]c(C)c1C` returned a kinetic solubility of 1.3 µg/mL (≈ 5.05 µM).
In turn, `CNC(=O)O/N=C(\N)Cc1csc2ccccc12` returned a kinetic solubility of 39.2 µg/mL (≈ 149 µM).
Take `Cc1c(NS(=O)(=O)c2cc(C(=O)N3CCCC(C)C3)ccc2Cl)c(=O)n(-c2ccccc2)n1C` (stereo not drawn): the solubility (kinetic) is greater than 75.5 µg/mL.
For `Cc1cccc(Nc2c([N+](=O)[O-])ccc3nonc23)c1`, the kinetic solubility is less than 0.1 µg/mL.
`O=C(Nc1nonc1-c1ccc(Cl)cc1)c1ccco1` gave a solubility (kinetic) greater than 43.5 µg/mL.
The compound `CCOc1cc(CC(=O)N[C@@H](CC(C)C)c2ccccc2N2CCCCC2)ccc1C(=O)O` displayed a solubility (kinetic) greater than 67.9 µg/mL.
`O=C(NCc1cccnc1)NC(=O)c1ccc(Cl)cc1` came in with a kinetic solubility of 3.8 µg/mL (≈ 13.1 µM).
With `CC(=Nc1ccc2c(c1)CCC2)c1c(O)n(-c2ccccc2)c(=O)[nH]c1=O`, the kinetic solubility is less than 0.3 µg/mL.
The value for `Cc1ccc(S(=O)(=O)c2c[nH]c3cc4c(cc3c2=O)OCO4)cc1` was 2 µg/mL (≈ 5.82 µM); that for `COC(=O)CC(CP(=O)([O-])CN(C)C=O)C(=O)OC` (stereo not drawn) was 27.9 µg/mL; that for `COCC1CCCN(Cc2nc(Cc3ccccc3)no2)C1` (stereo not drawn) was 44.7 µg/mL (≈ 148 µM).
`Cc1ccc(C(C)NC(=O)c2cc3ccccc3oc2=O)cc1C` (stereo not drawn) came in with a solubility (kinetic) of 0.8 µg/mL (≈ 2.49 µM).
`CCCCOc1ccc(C(=O)Nc2ccc3c(c2)OCO3)cc1`: the kinetic solubility is less than 0.7 µg/mL.
For the compound `O=C(CCN1CCN(c2ccccc2F)CC1)Nc1ccccc1Cl`, the solubility (kinetic) is greater than 54.3 µg/mL.
`Cc1cccc(COc2ccc(/C=C3/C(=O)N(C)C(=S)N3C)cc2)c1`: the solubility (kinetic) is 5.4 µg/mL (≈ 15.3 µM).
Consider `CC(=O)NC(CC(=O)NCCOc1ccccc1F)c1ccccc1` (stereo not drawn), for which the kinetic solubility was greater than 51.7 µg/mL.
With `CSc1nc2nc3c(cc2c(=O)n1-c1ccc(C)cc1)COC(C)(C)C3`, the kinetic solubility came out at 2.3 µg/mL (≈ 6.26 µM).
For `Cc1cccc(/C=C(\C(=O)O)c2ccc(S(=O)(=O)N3CCCC3)s2)c1`, the kinetic solubility was greater than 56.6 µg/mL.
The value for `N#Cc1cc2ccccc2nc1N` was greater than 25.4 µg/mL.
On to `COc1cc2c(cc1OC)C(COc1ccc(F)cc1)NCC2` (stereo not drawn), for which the solubility (kinetic) is 43.8 µg/mL (≈ 138 µM).
`O=C(CSc1ncccn1)NCc1cccs1`: the kinetic solubility was greater than 39.8 µg/mL.
The value for `CCS(=O)(=O)Nc1cccc(C(=O)O)c1` was 30.5 µg/mL (≈ 133 µM); that for `Cc1c(Cl)cccc1NC(=O)NCc1cccnc1` was greater than 41.4 µg/mL.
Turning to `O=C(O)c1ccccc1CSc1nc2ccccc2[nH]1`, the kinetic solubility is greater than 42.6 µg/mL.
In turn, `CC(CCc1ccccc1)NC(=O)CN(C)Cc1ccccc1F` (stereo not drawn) showed a kinetic solubility of 48.4 µg/mL (≈ 147 µM).
`CC(=O)c1cnc(Oc2cc(Cl)ccc2Cl)nc1C`: the kinetic solubility came out at 42.4 µg/mL (≈ 143 µM). This solubility kinetic and that of the compound before are within 1.5-fold of each other.
`Clc1cccc(CNc2nc(-c3cccnc3)nc3ccccc23)c1`: the kinetic solubility turned out to be 0.5 µg/mL (≈ 1.44 µM).
In the case of `COc1ccc(Br)cc1CN(C)C(=O)C1CC(=O)N(C2CCCC2)C1` (stereo not drawn), the solubility (kinetic) amounted to 54.2 µg/mL (≈ 132 µM). Against the preceding compound, the solubility kinetic is about 110-fold higher.
Turning to `O=C(NCCc1ccc(Cl)cc1)c1cnccn1`, the solubility (kinetic) was greater than 39.3 µg/mL.
`COc1ccccc1C(=O)NCCC(=O)NC1CCCCCC1` had a solubility (kinetic) greater than 47.8 µg/mL.
As to `O=C(CN1C(=O)NC(CCc2ccccc2)C1=O)N1CCCCCC1` (stereo not drawn), the kinetic solubility was greater than 51.5 µg/mL.
On to `Cc1cccc(C(=O)OCC(=O)NCC2COc3ccccc3O2)c1` (stereo not drawn), for which the kinetic solubility was determined as 5.9 µg/mL (≈ 17.3 µM).
With `COc1ccc(N(C)C(=O)Nc2ccc3nsnc3c2)cc1` the figure was 27.5 µg/mL (≈ 87.5 µM).
Turning to `COC(=O)c1ccc(C(=O)O)nc1`, the kinetic solubility came out at 21.5 µg/mL (≈ 119 µM).
With `COC(=O)c1c(C)oc(C)c1S(=O)(=O)NCC1CC1` the figure was greater than 43.1 µg/mL; with `COCCNC(=O)c1cccc(NC(=O)C2=C(C)OCCS2)c1`, greater than 50.5 µg/mL; with `Cc1ccc(N2C(=O)CC(Nc3cccc4ccccc34)C2=O)cc1` (stereo not drawn), 3.8 µg/mL (≈ 11.5 µM).
Compound `CCC(C)(C(=O)NC1CCCC1)N(C)C(=O)c1ccccn1` (stereo not drawn) had a kinetic solubility greater than 45.5 µg/mL.
In turn, `Cc1cc2ncn(CS(C)(=O)=O)c2cc1C` came in with a solubility (kinetic) of 34.3 µg/mL (≈ 144 µM).
The value for `Cc1ccc(NC(=S)NC(=O)c2cncc(Br)c2)c(C)c1` was 4.5 µg/mL (≈ 12.4 µM).
Compound `COc1ccc(OC)c(C2=NOC(C(=O)NCc3cccnc3)C2)c1` (stereo not drawn) gave a kinetic solubility of 47.8 µg/mL (≈ 140 µM).
`O=C1CCc2cc(S(=O)(=O)Nc3ccccc3)cc3c2N1CC3` gave a solubility (kinetic) greater than 49.3 µg/mL.
With `Cc1cccc(NC(=O)C2CCCN2C(=O)NC2CCCCC2)c1` (stereo not drawn) the figure was 3.1 µg/mL (≈ 9.41 µM).
`CCCCOc1ccc(C2C(C(=O)c3ccc(C)o3)=C(O)C(=O)N2Cc2ccco2)cc1` (stereo not drawn) yielded a kinetic solubility of 46.9 µg/mL (≈ 108 µM).
`CC(CN1CCCC1)OC(=O)Cc1ccc(Cl)cc1.Cl` (stereo not drawn) showed a kinetic solubility greater than 47.7 µg/mL.
Take `COc1ccc(S(=O)(=O)N2CC(C)N(C(=O)N3CCOCC3)C2)cc1` (stereo not drawn): the kinetic solubility is greater than 55.4 µg/mL.
With `CCOc1ccc(NC(=O)CNC(=O)Cc2ccccc2)cc1` the figure was 4.4 µg/mL (≈ 14.1 µM); with `COc1cc(OC)cc(C(=O)Nc2cccc3c2CCCC3)c1`, less than 0.7 µg/mL; with `Cc1noc(C)c1C(=O)OCC(=O)Nc1ccc(C(N)=O)cc1`, 42.2 µg/mL (≈ 133 µM).
`Cc1ccc(S(=O)(=O)N2CCCCC2)cc1NC(=O)COc1ccccc1` had a solubility (kinetic) of 4.3 µg/mL (≈ 11.1 µM).
`COc1ccc(OC)c(/C=C/C(=O)NCCc2nc3ccccc3[nH]2)c1` came in with a kinetic solubility of 46.4 µg/mL (≈ 132 µM).
Consider `NC(=O)CSc1nccn1Cc1ccccc1`, for which the solubility (kinetic) was greater than 37.1 µg/mL.
In turn, `COc1ccc(C(=O)NCC(=O)OCC(=O)NCc2ccco2)cc1` returned a solubility (kinetic) greater than 52 µg/mL.
For the compound `O=c1nc2n(c3cccc(Cl)c13)CCCCC2`, the kinetic solubility was 31 µg/mL (≈ 125 µM).
With `COc1ccc(C2C(C(C)=O)=C(O)C(=O)N2c2ccccn2)cc1` (stereo not drawn) the figure was greater than 48.7 µg/mL; with `Cc1ccc(CNC(=O)Nc2ccc(Cl)cc2)cc1`, less than 0.3 µg/mL.
The value for `O=C(/C=C/c1cccc(C(F)(F)F)c1)OCC(=O)N1CCN(c2ccccc2)CC1` was 3.7 µg/mL (≈ 8.84 µM); that for `CCN(C(=O)COC(=O)c1cnccn1)c1cccc2ccccc12` was greater than 50.3 µg/mL.
In turn, `Cc1ccc(OCC(=O)Nc2ccc3oc(=O)ccc3c2)cc1C` yielded a kinetic solubility of less than 0.7 µg/mL.
The compound `O=C(NC(=S)Nc1cccc([N+](=O)[O-])c1)c1ccccc1` registered a kinetic solubility of 1.2 µg/mL (≈ 3.98 µM).
With `O=C(Nc1cccc(F)c1)c1ccc2ncsc2c1`, the kinetic solubility was found to be 39.8 µg/mL (≈ 146 µM).
As for `Nc1c(C(=O)O)cnn1-c1ccc([N+](=O)[O-])cc1`, the kinetic solubility was greater than 37.2 µg/mL.
As for `COc1ccccc1-n1c(O)c(/C=C2\C=Nc3ccccc32)c(=O)[nH]c1=O`, the kinetic solubility came out at 4.4 µg/mL (≈ 12.2 µM).
The compound `COC(=O)c1ccc(CSc2nc(C(F)F)cc(C)c2C#N)o1` came in with a kinetic solubility of 8.3 µg/mL (≈ 24.5 µM).
The compound `COC(=O)c1ccc(NC(=O)c2ccc3nc(C)sc3c2)cc1` yielded a solubility (kinetic) of less than 0.3 µg/mL.
`O=S(=O)(Nc1ccncc1Cl)c1cc(Cl)ccc1Cl`: the kinetic solubility was greater than 50.6 µg/mL.
The value for `CCCN(CC(=O)Nc1ccccc1OC)C(=O)c1ccncc1` was greater than 49.1 µg/mL; that for `COc1ccc(/C(C)=N/NC(=O)CNC(=O)c2ccco2)cc1` was greater than 47.3 µg/mL.
The value for `CCN(CC)c1c([N+](=O)[O-])c(=O)oc2ccccc12` was greater than 39.3 µg/mL; that for `Cc1snc(SCc2c(F)cccc2Cl)c1C#N` was less than 0.3 µg/mL.
Compound `O=C(O)CSc1ncnc2sc(-c3ccccc3)cc12` gave a solubility (kinetic) greater than 45.4 µg/mL.
Regarding `O=C(NCCCN1CCCC1=O)Nc1ccc(Cl)cc1Cl`, the solubility (kinetic) was greater than 49.5 µg/mL.
As to `CC(C)c1nc(Cl)c(C#N)c2c1COC(C)(C)C2`, the kinetic solubility came out at 6.6 µg/mL (≈ 24.9 µM).
Turning to `COc1ccc(N2CCN(c3ccc(NC(=O)/C=C\C(=O)O)cc3)CC2)cc1`, the solubility (kinetic) is greater than 57.2 µg/mL.
Turning to `CN(CC(=O)Nc1ccc(F)cc1)C(=O)c1ccc(OCc2cn3ccccc3n2)cc1`, the solubility (kinetic) is 10.4 µg/mL (≈ 24 µM).
In turn, `CN(CCc1cnn(C)c1)Cc1cn(C)nc1-c1ccccc1F` came in with a solubility (kinetic) greater than 49.1 µg/mL.
Compound `CC(C)Cn1cnc2c1c(=O)[nH]c(=O)n2Cc1ccccc1` showed a solubility (kinetic) of 32.7 µg/mL (≈ 110 µM).
`COc1cc2ccccc2cc1C(=O)N1CCCC1` displayed a kinetic solubility greater than 38.3 µg/mL.
`CN(C(=O)/C=C/c1cnc2ccccc2c1)C1CCCCC1` gave a solubility (kinetic) greater than 44.2 µg/mL.
With `O=C(Nc1cc(Cl)ccc1Cl)C1Cc2ccccc2O/C1=N\O` (stereo not drawn) the figure was 2.8 µg/mL (≈ 7.97 µM); with `CC(=O)N/C(=N/c1nc(C)cc(C)n1)Nc1cccc(C)c1C`, 4.9 µg/mL (≈ 15.7 µM).
In turn, `CC(=O)Nc1nc2c(ccc3ccccc32)s1` displayed a solubility (kinetic) of 0.9 µg/mL (≈ 3.71 µM).
With `COc1cc(/C=C/C(=O)NC(=O)c2ccccc2O)ccc1O` the figure was greater than 47 µg/mL.
`CSCC[C@H](NC(=O)Nc1cccc(Br)c1)C(=O)O`: the kinetic solubility amounted to 39.4 µg/mL (≈ 113 µM).
